# Where “and” joins values, the source holds several entries; their conditions need not be identical. Equal values may be shown once.
# How the values were obtained:
# OVCAR-4 (Ovarian) = experiment: NCI60 panel IC50; type: cell-based, human
# Procedure: (§1) On the other hand, the values of IC50 were determined in the panel of NCl60 cell lines for compound 10.
# (§2) A total of 2 independent experiments were carried out with assays in triplicate for the compound and cell line. All those assays where an IC50 value was not reached in the highest concentration of 1E-05 M are represented by “>1E-05”. In these cases, the standard deviation cannot be calculated and for that reason it is calculated as “-”.
# NCI-H522 (Lung) = experiment: NCI60 panel IC50; type: cell-based, human; conditions: lung NCl-H522
# Procedure: as §1, §2
# SK-MEL-28 (Melanoma) = experiment: NCI60 panel IC50; type: cell-based, human
# Procedure: as §1, §2
# HCT-15 (Colon) = experiment: NCI60 panel IC50; type: cell-based, human
# Procedure: as §1, §2
# OVCAR-5 (Ovarian) = experiment: NCI60 panel IC50; type: cell-based, human
# Procedure: as §1, §2
# LOX-IMVI (Melanoma) = experiment: NCI60 panel IC50; type: cell-based, human
# Procedure: as §1, §2
# HT-29 (Colon) = experiment: NCI60 panel IC50; type: cell-based, human
# Procedure: as §1, §2
# 786-O (Renal) = experiment: NCI60 panel IC50; type: cell-based, human
# Procedure: as §1, §2
# OVCAR-8 (Ovarian) = experiment: NCI60 panel IC50; type: cell-based, human
# Procedure: as §1, §2
# MUSK = MUSK (Homo sapiens, UniProt O15146); experiment: in vitro kinase assay; type: biochemical
# Procedure: (§3) Specifically, against a panel of 210 kinases representative of the human kinome, the compounds tested inhibited by […] the activity of 25 of them in in Vitro assays (Table 1).
# (§4) The IC50 was determined for the most sensitive kinases to compound 10, obtaining values for said parameter, largely in the micromolar range. For this purpose, the 25 kinases inhibited more than 80% by the compound in in vitro assays were selected.
# CDK5/p25NCK = CDK5/p25NCK (Homo sapiens, UniProt Q00535); experiment: in vitro kinase assay; type: biochemical
# CDK5/p25NCK, sequence (Q00535 whole entry): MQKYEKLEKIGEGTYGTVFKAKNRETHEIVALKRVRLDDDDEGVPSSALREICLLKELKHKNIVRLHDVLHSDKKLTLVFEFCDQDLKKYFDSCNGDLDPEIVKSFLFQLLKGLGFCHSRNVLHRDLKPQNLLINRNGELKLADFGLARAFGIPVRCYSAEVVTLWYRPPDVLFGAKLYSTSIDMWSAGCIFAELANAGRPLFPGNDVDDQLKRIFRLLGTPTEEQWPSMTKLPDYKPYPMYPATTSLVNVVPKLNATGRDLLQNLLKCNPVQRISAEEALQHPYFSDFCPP
# CDK5/p25NCK, sequence (Q15078 99-307 partner limits assumed): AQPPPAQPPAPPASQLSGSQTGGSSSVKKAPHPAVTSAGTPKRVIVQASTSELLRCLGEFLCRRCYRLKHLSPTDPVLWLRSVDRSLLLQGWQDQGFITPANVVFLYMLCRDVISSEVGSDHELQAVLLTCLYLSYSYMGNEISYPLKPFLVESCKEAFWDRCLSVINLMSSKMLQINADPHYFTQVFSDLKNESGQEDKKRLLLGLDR
# Procedure: as §3, §4
# ABL1 = ABL1 (Homo sapiens, UniProt P00519); experiment: in vitro kinase assay; type: biochemical
# Procedure: as §3, §4
# PKC-alpha = PKC-alpha (Homo sapiens, UniProt P17252); experiment: in vitro kinase assay; type: biochemical
# Procedure: as §3, §4
# NLK = NLK (Homo sapiens, UniProt Q9UBE8); experiment: in vitro kinase assay; type: biochemical
# Procedure: as §3, §4
# S6K = S6K (Homo sapiens, UniProt P23443); experiment: in vitro kinase assay; type: biochemical
# Procedure: as §3, §4
# MET = MET (Homo sapiens, UniProt P08581); experiment: in vitro kinase assay; type: biochemical
# Procedure: as §3, §4
# CDK7/CycH/Mat1 = CDK7/CycH/Mat1 (Homo sapiens, UniProt P50613); experiment: in vitro kinase assay; type: biochemical
# Procedure: as §3, §4
# TRK-C = TRK-C (Homo sapiens, UniProt Q16288); experiment: in vitro kinase assay; type: biochemical
# TRK-C, sequence (Q16288 32-839): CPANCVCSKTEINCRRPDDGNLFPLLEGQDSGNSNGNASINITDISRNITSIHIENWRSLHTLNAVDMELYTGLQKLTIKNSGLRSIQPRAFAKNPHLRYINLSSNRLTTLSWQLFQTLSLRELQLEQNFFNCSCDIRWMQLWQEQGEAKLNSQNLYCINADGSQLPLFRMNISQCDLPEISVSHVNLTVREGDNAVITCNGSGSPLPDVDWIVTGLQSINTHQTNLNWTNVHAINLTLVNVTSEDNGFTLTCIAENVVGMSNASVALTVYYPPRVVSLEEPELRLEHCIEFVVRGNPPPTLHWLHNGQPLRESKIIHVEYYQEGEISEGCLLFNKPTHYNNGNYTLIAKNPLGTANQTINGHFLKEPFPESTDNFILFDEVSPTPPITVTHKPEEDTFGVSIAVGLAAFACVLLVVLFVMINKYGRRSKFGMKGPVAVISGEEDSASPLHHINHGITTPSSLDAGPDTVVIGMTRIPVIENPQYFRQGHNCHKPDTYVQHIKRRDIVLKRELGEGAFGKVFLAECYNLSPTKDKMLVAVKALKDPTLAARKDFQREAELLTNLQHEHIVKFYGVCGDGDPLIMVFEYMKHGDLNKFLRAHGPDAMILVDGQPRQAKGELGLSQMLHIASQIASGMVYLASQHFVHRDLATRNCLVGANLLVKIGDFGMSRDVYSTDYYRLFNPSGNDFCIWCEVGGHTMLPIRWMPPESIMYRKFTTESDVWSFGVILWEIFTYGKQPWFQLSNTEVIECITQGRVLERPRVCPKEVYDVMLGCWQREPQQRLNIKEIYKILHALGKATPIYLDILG
# Procedure: as §3, §4
# PKC-gamma = PKC-gamma (Homo sapiens, UniProt P05129); experiment: in vitro kinase assay; type: biochemical
# Procedure: as §3, §4
# CHK1 = CHK1 (Homo sapiens, UniProt O14757); experiment: in vitro kinase assay; type: biochemical
# Procedure: as §3, §4
# VRK1 = VRK1 (Homo sapiens, UniProt Q99986); experiment: in vitro kinase assay; type: biochemical
# Procedure: as §3, §4
# CDK9/CycT = CDK9/CycT (Homo sapiens, UniProt P50750); experiment: in vitro kinase assay; type: biochemical
# CDK9/CycT, sequence (P50750 whole entry): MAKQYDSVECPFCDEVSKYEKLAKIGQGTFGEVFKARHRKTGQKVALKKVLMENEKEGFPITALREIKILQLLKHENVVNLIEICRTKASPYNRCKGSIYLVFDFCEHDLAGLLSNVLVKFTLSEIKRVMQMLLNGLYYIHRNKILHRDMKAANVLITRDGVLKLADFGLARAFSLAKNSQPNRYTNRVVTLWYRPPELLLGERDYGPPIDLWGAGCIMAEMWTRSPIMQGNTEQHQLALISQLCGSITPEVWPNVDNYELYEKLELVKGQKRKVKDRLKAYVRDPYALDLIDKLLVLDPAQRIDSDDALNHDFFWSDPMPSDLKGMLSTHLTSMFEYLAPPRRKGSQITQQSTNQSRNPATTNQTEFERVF
# CDK9/CycT, sequence (O60563 whole entry partner): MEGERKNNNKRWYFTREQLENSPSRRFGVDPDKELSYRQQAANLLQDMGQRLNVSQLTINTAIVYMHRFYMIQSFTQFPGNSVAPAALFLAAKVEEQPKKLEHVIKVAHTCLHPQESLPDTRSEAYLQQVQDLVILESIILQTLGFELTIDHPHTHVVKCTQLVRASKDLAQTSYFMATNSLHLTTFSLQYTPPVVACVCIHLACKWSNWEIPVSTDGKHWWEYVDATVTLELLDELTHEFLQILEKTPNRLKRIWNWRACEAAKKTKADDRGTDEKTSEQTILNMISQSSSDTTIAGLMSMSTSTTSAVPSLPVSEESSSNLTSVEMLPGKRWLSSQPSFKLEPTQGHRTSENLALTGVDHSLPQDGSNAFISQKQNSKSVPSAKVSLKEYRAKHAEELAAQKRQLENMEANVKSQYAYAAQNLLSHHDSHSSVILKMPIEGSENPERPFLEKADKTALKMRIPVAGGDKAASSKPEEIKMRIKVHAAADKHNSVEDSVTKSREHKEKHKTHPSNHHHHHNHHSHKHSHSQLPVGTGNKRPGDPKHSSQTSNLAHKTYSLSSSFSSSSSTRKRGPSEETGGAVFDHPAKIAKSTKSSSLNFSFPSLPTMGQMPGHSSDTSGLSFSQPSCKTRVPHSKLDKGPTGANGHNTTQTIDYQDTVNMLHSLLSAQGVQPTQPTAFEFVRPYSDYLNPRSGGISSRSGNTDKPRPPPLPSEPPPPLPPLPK
# Procedure: as §3, §4
# PAK4 = PAK4 (Homo sapiens, UniProt O96013); experiment: in vitro kinase assay; type: biochemical
# Procedure: as §3, §4
# PLK1 = PLK1 (Homo sapiens, UniProt P53350); experiment: in vitro kinase assay; type: biochemical
# Procedure: as §3, §4
# TGFB-R1 = TGFB-R1 (Homo sapiens, UniProt P36897); experiment: in vitro kinase assay; type: biochemical
# Procedure: as §3, §4
# CSK = CSK (Homo sapiens, UniProt P41240); experiment: in vitro kinase assay; type: biochemical
# CSK, sequence (P41240 whole entry): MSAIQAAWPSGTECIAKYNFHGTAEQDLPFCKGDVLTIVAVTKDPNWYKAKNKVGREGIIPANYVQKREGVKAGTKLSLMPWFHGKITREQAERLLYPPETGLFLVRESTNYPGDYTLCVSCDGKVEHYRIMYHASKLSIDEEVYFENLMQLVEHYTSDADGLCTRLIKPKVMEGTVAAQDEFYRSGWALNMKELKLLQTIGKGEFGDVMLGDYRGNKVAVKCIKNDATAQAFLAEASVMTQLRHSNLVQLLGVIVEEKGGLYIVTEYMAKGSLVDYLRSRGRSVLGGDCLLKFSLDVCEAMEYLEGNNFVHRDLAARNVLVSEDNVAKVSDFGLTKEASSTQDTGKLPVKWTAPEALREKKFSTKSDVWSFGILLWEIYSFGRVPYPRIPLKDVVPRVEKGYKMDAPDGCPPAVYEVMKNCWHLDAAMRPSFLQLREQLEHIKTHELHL
# Procedure: as §3, §4
# CDK4/CycD3 = CDK4/CycD3 (Homo sapiens, UniProt P11802); experiment: in vitro kinase assay; type: biochemical
# CDK4/CycD3, sequence (P11802 whole entry): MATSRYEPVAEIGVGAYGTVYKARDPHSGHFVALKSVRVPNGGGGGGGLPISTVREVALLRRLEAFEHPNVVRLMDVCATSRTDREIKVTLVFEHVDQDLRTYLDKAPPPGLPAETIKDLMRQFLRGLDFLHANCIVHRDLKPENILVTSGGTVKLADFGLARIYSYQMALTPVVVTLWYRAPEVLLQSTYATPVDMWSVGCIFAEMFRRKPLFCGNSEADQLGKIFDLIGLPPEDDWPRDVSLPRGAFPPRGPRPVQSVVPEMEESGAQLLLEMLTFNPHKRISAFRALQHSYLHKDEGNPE
# CDK4/CycD3, sequence (P30281 whole entry partner): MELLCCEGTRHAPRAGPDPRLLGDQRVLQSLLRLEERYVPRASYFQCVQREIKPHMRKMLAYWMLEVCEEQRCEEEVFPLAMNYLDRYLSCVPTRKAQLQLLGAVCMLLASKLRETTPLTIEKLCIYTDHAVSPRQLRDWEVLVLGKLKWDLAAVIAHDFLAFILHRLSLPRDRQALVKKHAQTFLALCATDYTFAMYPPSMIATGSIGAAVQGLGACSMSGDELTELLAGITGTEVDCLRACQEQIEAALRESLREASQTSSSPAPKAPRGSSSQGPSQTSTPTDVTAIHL
# Procedure: as §3, §4
# PAK7 = PAK7 (Homo sapiens, UniProt Q9P286); experiment: in vitro kinase assay; type: biochemical
# Procedure: as §3, §4
# ACK1 = ACK1 (Homo sapiens, UniProt Q07912); experiment: in vitro kinase assay; type: biochemical
# Procedure: as §3, §4
# FGF-R2 = FGF-R2 (Homo sapiens, UniProt P21802); experiment: in vitro kinase assay; type: biochemical
# Procedure: as §3, §4
# FGF-R1 VM = FGF-R1 VM (Homo sapiens, UniProt P11362, V561M); experiment: in vitro kinase assay; type: biochemical
# Procedure: as §3, §4
# PKC-beta1 = PKC-beta1 (Homo sapiens, UniProt P05771); experiment: in vitro kinase assay; type: biochemical
# PKC-beta1, sequence (P05771 whole entry): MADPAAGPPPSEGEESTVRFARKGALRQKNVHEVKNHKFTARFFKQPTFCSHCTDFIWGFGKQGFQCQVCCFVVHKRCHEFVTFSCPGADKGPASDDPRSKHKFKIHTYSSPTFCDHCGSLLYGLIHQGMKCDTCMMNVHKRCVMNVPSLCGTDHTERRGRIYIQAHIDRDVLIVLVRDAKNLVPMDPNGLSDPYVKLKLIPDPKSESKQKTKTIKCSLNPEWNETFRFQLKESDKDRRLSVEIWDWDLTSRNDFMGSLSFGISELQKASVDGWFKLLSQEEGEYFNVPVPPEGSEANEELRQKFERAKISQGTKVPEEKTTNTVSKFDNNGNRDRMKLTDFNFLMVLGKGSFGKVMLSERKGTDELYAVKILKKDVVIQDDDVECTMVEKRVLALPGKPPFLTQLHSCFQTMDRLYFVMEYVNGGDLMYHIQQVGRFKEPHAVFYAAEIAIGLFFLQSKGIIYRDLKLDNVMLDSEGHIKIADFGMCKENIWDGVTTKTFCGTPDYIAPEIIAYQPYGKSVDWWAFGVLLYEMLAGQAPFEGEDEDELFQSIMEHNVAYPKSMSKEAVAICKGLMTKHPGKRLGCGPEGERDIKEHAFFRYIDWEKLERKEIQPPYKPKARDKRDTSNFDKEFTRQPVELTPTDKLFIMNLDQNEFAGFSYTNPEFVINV
# Procedure: as §3, §4
compound,measurement,setting,value
CN1CCCNc2c(c(=O)c2=O)NCCCN(C)CCCNc2c(c(=O)c2=O)NCCCN(C)CCCNc2c(c(=O)c2=O)NCCCN(C)CCCNc2c(c(=O)c2=O)NCCCN(C)CCCNc2c(c(=O)c2=O)NCCC1 [Compound 10],IC50,"OVCAR-4 (Ovarian); Homo sapiens, OVCAR-4 (Ovarian), NCI60 panel, highest concentration 1E-05 M",> 10 µM
same,sensitivity of the line to the tested compound,OVCAR-4 (Ovarian); ovarian OVCAR-4,resistant
same,sensitivity of the line to the tested compound,NCI-H522 (Lung),resistant
same,IC50,"SK-MEL-28 (Melanoma); Homo sapiens, SK-MEL-28 (Melanoma), NCI60 panel, highest concentration 1E-05 M",> 10 µM
same,sensitivity of the line to the tested compound,SK-MEL-28 (Melanoma); melanoma SK-MEL-28,resistant
same,IC50,"HCT-15 (Colon); Homo sapiens, HCT-15 (Colon), NCI60 panel, highest concentration 1E-05 M",> 10 µM
same,sensitivity of the line to the tested compound,HCT-15 (Colon); colon HCTI5,resistant
same,IC50,"OVCAR-5 (Ovarian); Homo sapiens, OVCAR-5 (Ovarian), NCI60 panel, highest concentration 1E-05 M",> 10 µM
same,sensitivity of the line to the tested compound,OVCAR-5 (Ovarian); ovarian OVCAR-5,resistant
same,IC50,"LOX-IMVI (Melanoma); Homo sapiens, LOX-IMVI (Melanoma), NCI60 panel, highest concentration 1E-05 M",> 10 µM
same,sensitivity of the line to the tested compound,LOX-IMVI (Melanoma); melanoma LOX-IMVI,resistant
same,IC50,"HT-29 (Colon); Homo sapiens, HT-29 (Colon), NCI60 panel, highest concentration 1E-05 M",> 10 µM
same,sensitivity of the line to the tested compound,HT-29 (Colon); colon HT-29,resistant
same,IC50,"786-O (Renal); Homo sapiens, 786-0, 786-O (Renal), NCI60 panel, highest concentration 1E-05 M",> 10 µM
same,sensitivity of the line to the tested compound,786-O (Renal); renal 786-O,resistant
same,IC50,"OVCAR-8 (Ovarian); Homo sapiens, OVCAR-8 (Ovarian), NCI60 panel, highest concentration 1E-05 M",> 10 µM
same,sensitivity of the line to the tested compound,OVCAR-8 (Ovarian); ovarian OVCAR-8,resistant
same,IC50,MUSK,1.5 µM
same,inhibition of kinase cdk5,CDK5/p25NCK; in vitro kinase assay,80%
same,IC50,"CDK5/p25NCK; kinase CDK5/p25NCK, in vitro",9.2 µM
same,IC50,ABL1,5.4 µM
same,IC50,PKC-alpha,2.3 µM
same,IC50,NLK,4.3 µM
same,IC50,S6K,4.4 µM
same,IC50,MET,3.7 µM
same,IC50,CDK7/CycH/Mat1,28 µM
same,IC50,TRK-C,7.2 µM and 6.6 µM
same,IC50,PKC-gamma,5.8 µM and 4.9 µM
same,IC50,CHK1,1.4 µM
same,IC50,VRK1,2.4 µM
same,inhibition of kinase cdk9,CDK9/CycT; in vitro kinase assay,87%
same,IC50,"CDK9/CycT; kinase CDK9/CycT, in vitro",3.7 µM
same,IC50,PAK4,4.3 µM
same,IC50,PLK1,26 µM
same,IC50,TGFB-R1,3.3 µM
same,IC50,CSK,13 µM and 7.2 µM
same,IC50,CDK4/CycD3,5.4 µM and 5.3 µM
same,IC50,PAK7,4.9 µM
same,inhibition of kinase Ack1,ACK1,85%
same,IC50,FGF-R2,5.4 µM
same,IC50,FGF-R1 VM,2.6 µM
same,IC50,PKC-beta1,7.6 µM
